Experimental data from patent US8729273B2, “Compounds effective as xanthine oxidase inhibitors, method for preparing the same, and pharmaceutical composition containing the same” (LG Life Sciences Ltd., priority 2009, dated 2014).

What follows are compounds tested against Xanthine oxidase originated from bovine milk (Bos taurus (Bovine), UniProt P80457) (assay: Xanthine oxidase inhibition activity (initial velocity of uric acid formation)). Conditions: 3 min incubation with test compound, substrate xanthine.
Xanthine oxidase originated from bovine milk, sequence (P80457 whole entry): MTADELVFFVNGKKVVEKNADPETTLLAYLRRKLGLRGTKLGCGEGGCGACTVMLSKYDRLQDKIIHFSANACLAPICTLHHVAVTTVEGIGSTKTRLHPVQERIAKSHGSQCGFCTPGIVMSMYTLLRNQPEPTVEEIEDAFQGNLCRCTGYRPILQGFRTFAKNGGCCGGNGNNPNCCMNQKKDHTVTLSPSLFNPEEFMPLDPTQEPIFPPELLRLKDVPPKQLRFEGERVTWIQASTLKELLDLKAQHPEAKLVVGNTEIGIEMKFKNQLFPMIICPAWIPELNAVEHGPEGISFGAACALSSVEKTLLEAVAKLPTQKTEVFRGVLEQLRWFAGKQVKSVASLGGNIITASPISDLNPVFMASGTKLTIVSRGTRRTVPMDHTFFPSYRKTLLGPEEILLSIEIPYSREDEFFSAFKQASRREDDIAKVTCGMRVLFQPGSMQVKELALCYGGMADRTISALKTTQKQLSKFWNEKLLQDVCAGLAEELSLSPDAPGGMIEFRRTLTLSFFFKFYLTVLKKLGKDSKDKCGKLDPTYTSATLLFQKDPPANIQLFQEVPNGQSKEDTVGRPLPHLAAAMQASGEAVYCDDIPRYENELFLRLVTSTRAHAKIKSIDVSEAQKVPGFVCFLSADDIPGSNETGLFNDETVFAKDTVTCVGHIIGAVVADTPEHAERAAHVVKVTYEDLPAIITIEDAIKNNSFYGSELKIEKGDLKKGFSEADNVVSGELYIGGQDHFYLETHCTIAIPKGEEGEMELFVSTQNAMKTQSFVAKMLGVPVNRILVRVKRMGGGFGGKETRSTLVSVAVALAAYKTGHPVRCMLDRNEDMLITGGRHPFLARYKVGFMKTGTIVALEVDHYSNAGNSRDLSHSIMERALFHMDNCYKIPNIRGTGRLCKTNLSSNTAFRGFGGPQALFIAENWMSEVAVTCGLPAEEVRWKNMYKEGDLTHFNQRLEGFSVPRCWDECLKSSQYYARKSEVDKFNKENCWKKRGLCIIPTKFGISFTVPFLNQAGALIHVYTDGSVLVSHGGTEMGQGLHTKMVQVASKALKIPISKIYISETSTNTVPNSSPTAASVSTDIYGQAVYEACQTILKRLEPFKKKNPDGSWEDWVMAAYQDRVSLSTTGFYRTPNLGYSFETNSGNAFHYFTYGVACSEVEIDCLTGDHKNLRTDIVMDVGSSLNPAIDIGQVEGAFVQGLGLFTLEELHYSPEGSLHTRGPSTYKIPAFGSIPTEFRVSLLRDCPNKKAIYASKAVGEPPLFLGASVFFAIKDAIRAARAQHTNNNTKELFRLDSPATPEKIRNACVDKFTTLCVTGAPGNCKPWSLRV
Assay type: biochemical
Method: Xanthine oxidase originated from bovine milk was incubated for 3 min with test compounds, and the initial velocity of uric acid formation was determined by adding the substrate xanthine. The initial velocity of test compound at each concentration was converted to % inhibition rate on the basis of the initial velocity under the absence of the inhibitor, thereby the inhibitor concentration needed for 50% inhibition was calculated as IC50 values. According to the present invention, compounds which show IC50 values against xanthine oxidase from bovine milk in the level of nM were developed.

| SMILES | IC50 [nM] |
| --- | --- |
| CC(C)n1cc(C#N)c2cc(-n3cc(C(=O)O)cn3)ccc21 [Example 1, 1-(3-cyano-1-isopropyl-indol-5-yl)pyrazole-4-carboxylic acid] | 3.4 |
| N#Cc1cn(CC2CC2)c2ccc(-n3cc(C(=O)O)cn3)cc12 [Example 2, 1-[3-cyano-1-(cyclopropylmethyl)indol-5-yl]pyrazole-4-carboxylic acid] | 2.8 |
| N#Cc1cn(C2CC2)c2ccc(-n3cc(C(=O)O)cn3)cc12 [Example 3, 1-[3-cyano-1-cyclopropyl-indol-5-yl]pyrazole-4-carboxylic acid] | 6 |
| CC(C)Cn1cc(C#N)c2cc(-n3cc(C(=O)O)cn3)ccc21 [Example 4, 1-(3-cyano-1-isobutyl-indol-5-yl)pyrazole-4-carboxylic acid] | 4.5 |
| CCC(C)n1cc(C#N)c2cc(-n3cc(C(=O)O)cn3)ccc21 (centres unmarked) [Example 7, 1-(3-cyano-1-sec-butyl-indol-5-yl)-pyrazole-4-carboxylic acid] | 6.7 |
| N#Cc1cn(C2CCC2)c2ccc(-n3cc(C(=O)O)cn3)cc12 [Example 8, 1-[3-cyano-1-cyclobutyl-indol-5-yl]pyrazole-4-carboxylic acid] | 6.9 |
| N#Cc1cn(C2CCOC2)c2ccc(-n3cc(C(=O)O)cn3)cc12 (centres unmarked) [Example 11, 1-[3-cyano-1-(tetrahydrofuran-3-yl)-indol-5-yl]-pyrazole-4-carboxylic acid] | 5.4 |
| Cc1nn(-c2ccc3c(c2)c(C#N)cn3C(C)C)cc1C(=O)O [Example 12, 1-[3-cyano-1-isopropyl-indol-5-yl]-3-methyl-pyrazole-4-carboxylic acid] | 11.6 |
| Cc1nn(-c2ccc3c(c2)c(C#N)cn3CC2CC2)cc1C(=O)O [Example 13, 1-[3-cyano-1-(cyclopropylmethyl)indol-5-yl]-3-methyl-pyrazole-4-carboxylic acid] | 4.8 |
| COCCn1cc(C#N)c2cc(-n3cc(C(=O)O)c(C)n3)ccc21 [Example 14, 1-[3-cyano-1-(2-methoxyethyl)indol-5-yl]-3-methyl-pyrazole-4-carboxylic acid] | 12 |
| CC(C)n1cc(C#N)c2cc(-n3cc(C(=O)O)c(C(F)(F)F)n3)ccc21 [Example 15, 1-[3-cyano-1-isopropyl-indol-5-yl]-3-(trifluoromethyl)pyrazole-4-carboxylic acid] | 29200 |
| N#Cc1cn(CC2CC2)c2ccc(-n3cc(C(=O)O)c(C(F)(F)F)n3)cc12 [Example 16, 1-[3-cyano-1-(cyclopropylmethyl)indol-5-yl]-3-(trifluoromethyl)pyrazole-4-carboxylic acid] | 21300 |
| CC(C)n1cc([N+](=O)[O-])c2cc(-n3cc(C(=O)O)cn3)ccc21 [Example 17, 1-(1-isopropyl-3-nitro-indol-5-yl)pyrazole-4-carboxylic acid] | 4.6 |
| CC(C)n1cc(C#N)c2cc(-c3ccc(C(=O)O)s3)ccc21 [Example 20, 5-(3-cyano-1-isopropyl-indol-5-yl)-thiophene-2-carboxylic acid] | 4.7 |
| N#Cc1cn(C2CCOC2)c2ccc(-c3cc(C(=O)O)ccn3)cc12 (centres unmarked) [Example 23, 2-[3-cyano-1-(tetrahydrofuran-3-yl)-indol-5-yl]isonicotinic acid] | 10 |
| CC(CF)n1cc(C#N)c2cc(-c3cc(C(=O)O)ccn3)ccc21 (centres unmarked) [Example 24, 2-[3-cyano-1-(1-fluoropropan-2-yl)-indol-5-yl]isonicotinic acid] | 6.2 |
| Cc1cc(C(=O)O)cc(-c2ccc3c(c2)c(C#N)cn3C(C)C)n1 [Example 26, 2-(3-cyano-1-isopropyl-indol-5-yl)-6-methylisonicotinic acid] | 3940 |
| N#Cc1cc(-n2cc(C(=O)O)cn2)cc2cc(-c3ccccc3)[nH]c12 [Example 28, 1-(7-cyano-2-phenyl-1H-indol-5-yl)-pyrazole-4-carboxylic acid] | 24 |
| N#Cc1cc(-n2cc(C(=O)O)cn2)cc2cc[nH]c12 [Example 31, 1-(7-cyano-1H-indol-5-yl)-pyrazole-4-carboxylic acid] | 40 |

Further compounds by falling IC50, results first:

| IC50 [nM] | SMILES |
| --- | --- |
| 24 | CC(C)n1cc(C#N)c2cc(-n3cnc(C(=O)O)c3)ccc21 [Example 19, 1-(3-cyano-1-isopropyl-indol-5-yl)imidazole-4-carboxylic acid] |
| 17 | COCc1cc2cc(-n3cc(C(=O)O)cn3)cc(C#N)c2[nH]1 [Example 30, 1-(7-cyano-2-methoxymethyl-1H-indol-5-yl)-pyrazole-4-carboxylic acid] |
| 13 | CC(C)n1cc(C#N)c2cc(-n3cnc(C(=O)O)n3)ccc21 [Example 18, 1-(3-cyano-1-isopropyl-indol-5-yl)-1,2,4-triazole-3-carboxylic acid] |
| 11 | CC(C)n1cc([N+](=O)[O-])c2cc(-c3cc(C(=O)O)ccn3)ccc21 [Example 27, 2-(1-isopropyl-3-nitro-indol-5-yl) isonicotinic acid] |
| 8.5 | COCCn1cc(C#N)c2cc(-c3cc(C(=O)O)ccn3)ccc21 [Example 25, 2-[3-cyano-1-(2-methoxyethyl)-indol-5-yl]isonicotinic acid] |
| 6.2 | CC(C)n1cc(C#N)c2cc(-c3cc(C(=O)O)ccn3)ccc21 [Example 21, 2-(3-cyano-1-isopropyl-indol-5-yl)isonicotinic acid] |
| 5.2 | CC(CF)n1cc(C#N)c2cc(-n3cc(C(=O)O)cn3)ccc21 (centres unmarked) [Example 10, 1-[3-cyano-1-(1-fluoropropan-2-yl)-indol-5-yl]-pyrazole-4-carboxylic acid] |
| 5 | CC(C)(C)Cn1cc(C#N)c2cc(-n3cc(C(=O)O)cn3)ccc21 [Example 5, 1-[3-cyano-1-(2,2-dimethylpropyl)indol-5-yl]pyrazole-4-carboxylic acid] |
| 5 | CC(C)c1cc2cc(-n3cc(C(=O)O)cn3)cc(C#N)c2[nH]1 [Example 29, 1-(7-cyano-2-isopropyl-1H-indol-5-yl)-pyrazole-4-carboxylic acid] |
| 4.6 | N#Cc1cn(C2CCCC2)c2ccc(-n3cc(C(=O)O)cn3)cc12 [Example 9, 1-(3-cyano-1-cyclopentyl-indol-5-yl)-pyrazole-4-carboxylic acid] |
| 3.8 | COCCn1cc(C#N)c2cc(-n3cc(C(=O)O)cn3)ccc21 [Example 6, 1-[3-cyano-1-(2-methoxyethyl)indol-5-yl]pyrazole-4-carboxylic acid] |
| 2.1 | N#Cc1cn(CC2CC2)c2ccc(-c3cc(C(=O)O)ccn3)cc12 [Example 22, 2-[3-cyano-1-(cyclopropylmethyl)-indol-5-yl]isonicotinic acid] |

The compounds below were run on plasma uric acid (assay: In vivo xanthine oxidase assay: plasma uric acid-lowering activity in oxonic acid-induced high-uric acid model). Conditions: male SD rats, potassium oxonate 300 mg/kg i.p., compound 10 mg/kg oral, plasma at 1 h after oral administration; normal group = 100% inhibition, control group = 0%.
Design: species or system rat
Method: Uric Acid-Lowering Activity in Plasma and Liver (Oxonic Acid-Induced High-Uric Acid Model in Rat)
In order to estimate the plasma uric acid-lowering ability of the compounds according to the present invention, experiments were carried out using oxonic acid-induced high-uric acid model.
300 mg/kg of potassium oxonate suspended in 0.8% carboxymethylcellulose solution was intraperitoneally administered to male SD rats of body weight 200 g (control group, compound administration group). 1 h after the oxonic acid administration, 10 mg/kg of test compounds dissolved in polyethyleneglycol 400:ethanol (2:1) solution were orally administered (compound administration group), and after the time period of 1 h blood was sampled. Plasma was separated from thus-obtained blood, and the uric acid concentration in the plasma was quantified utilizing LC-MS/MS. FIGS. 1 and 2 represent the results of plasma uric acid concentration and inhibition rate of plasma uric acid, respectively.
Through the present experiment, excellent plasma uric acid-lowering activity of the compounds according to the present invention was verified.

| SMILES | uric acid inhibition rate [%] |
| --- | --- |
| CC(C)n1cc(C#N)c2cc(-n3cc(C(=O)O)cn3)ccc21 [Example 1, 1-(3-cyano-1-isopropyl-indol-5-yl)pyrazole-4-carboxylic acid] | 60 |
